Here are results for 4 molecules from patent publication US20050124595A1, “Compositions and methods for treating glaucoma and ocular hypertension” (priority 2002, published 2005).

Some results are limits rather than exact numbers.

The target of data set [1] is T1, high-conductance calcium-activated potassium (maxi-K) channels (Homo sapiens, UniProt Q12791).
T1 construct: expressed in transfected cells; host or cells: CHO cells (α-subunit alone) and HEK293 cells (α- and β-subunits)
Nature of the data set: Patch clamp recordings of maxi-K channel currents in excised inside-out membrane patches. Type of data set: biochemical. As to conditions: from reduction in peak current, 10 nM compound on internal side of membrane patch, held at -80 mV, steps typically to +50 mV. The text has this:
Patch clamp recordings of currents flowing through high-conductance calcium-activated potassium (maxi-K) channels were made from membrane patches excised from CHO cells constitutively expressing the α-subunit of the maxi-K channel and from HEK293 cells constitutively expressing both α- and β-subunits using conventional techniques (Hamill et al., 1981, Pflügers Archiv. 391, 85-100) at room temperature. Glass capillary tubing (Garner #7052) was pulled in two stages to yield micropipettes with tip diameters of approximately 1-2 microns. Pipettes were typically filled with solutions containing (mM): 150 KCl, 10 Hepes (4-(2-hydroxyethyl)-1-piperazine […]), 1 MgCl2, 0.01 CaCl2, and adjusted to pH 7.20 with 3.7 mM KOH. After forming a high resistance ([…]) seal between the plasma membrane and the pipette, the pipette was withdrawn from the cell, forming an excised inside-out membrane patch. The patch was excised into a bath solution containing (mM): 150 KCl, 10 Hepes, 5 EGTA (ethylene glycol bis(β-aminoethyl ether)-N,N,N′,N′-tetraacetic acid), sufficient Ca to yield a free Ca concentration of 1-5 μM, and the pH was adjusted to 7.2 with KOH. For example, 4.193 mM Ca was added to give a free concentration of 1 μM at 22° C. An EPC9 amplifier (HEKA Elektronic, Lambrect, Germany) was used to control the voltage and to measure the currents flowing across the membrane patch. The input to the headstage was connected to the pipette solution with a Ag/AgCl wire, and the amplifier ground was connected to the bath solution with a Ag/AgCl wire covered with a tube filled with agar dissolved in 0.2 M KCl. […]
The effects of the compounds of the present invention on maxi-K channels was examined in excised inside-out membrane patches. […] The fraction of channels blocked in each experiment was calculated from the reduction in peak current caused by application of 10 nM of specified compound to the internal side of the membrane patch. […]
A general note: The patch-clamp technique gives a direct electrical read-out from membranes.

For data set [2], the system named is Mice (CD-1). In words: Tremorgen assay, mouse model. Type of data set: in vivo. Particulars: CD-1 mice; for Tremors: intraperitoneal. How it is done: Tremorgen Assay A mouse model was developed to evaluate the tremorgen potential of the instance compounds. Mice (CD-1) were injected intraperitoneally at 5 mg/Kg with each compound and observed by investigators for 1 hour for any signs of tremors as well as other behaviors not seen in control mice.
A known tremorgen, Aflatrem, consistently produces tremors in injected mice within 15 minutes at 1 and 5 mg/Kg.

T1 sequence (Q12791 whole entry): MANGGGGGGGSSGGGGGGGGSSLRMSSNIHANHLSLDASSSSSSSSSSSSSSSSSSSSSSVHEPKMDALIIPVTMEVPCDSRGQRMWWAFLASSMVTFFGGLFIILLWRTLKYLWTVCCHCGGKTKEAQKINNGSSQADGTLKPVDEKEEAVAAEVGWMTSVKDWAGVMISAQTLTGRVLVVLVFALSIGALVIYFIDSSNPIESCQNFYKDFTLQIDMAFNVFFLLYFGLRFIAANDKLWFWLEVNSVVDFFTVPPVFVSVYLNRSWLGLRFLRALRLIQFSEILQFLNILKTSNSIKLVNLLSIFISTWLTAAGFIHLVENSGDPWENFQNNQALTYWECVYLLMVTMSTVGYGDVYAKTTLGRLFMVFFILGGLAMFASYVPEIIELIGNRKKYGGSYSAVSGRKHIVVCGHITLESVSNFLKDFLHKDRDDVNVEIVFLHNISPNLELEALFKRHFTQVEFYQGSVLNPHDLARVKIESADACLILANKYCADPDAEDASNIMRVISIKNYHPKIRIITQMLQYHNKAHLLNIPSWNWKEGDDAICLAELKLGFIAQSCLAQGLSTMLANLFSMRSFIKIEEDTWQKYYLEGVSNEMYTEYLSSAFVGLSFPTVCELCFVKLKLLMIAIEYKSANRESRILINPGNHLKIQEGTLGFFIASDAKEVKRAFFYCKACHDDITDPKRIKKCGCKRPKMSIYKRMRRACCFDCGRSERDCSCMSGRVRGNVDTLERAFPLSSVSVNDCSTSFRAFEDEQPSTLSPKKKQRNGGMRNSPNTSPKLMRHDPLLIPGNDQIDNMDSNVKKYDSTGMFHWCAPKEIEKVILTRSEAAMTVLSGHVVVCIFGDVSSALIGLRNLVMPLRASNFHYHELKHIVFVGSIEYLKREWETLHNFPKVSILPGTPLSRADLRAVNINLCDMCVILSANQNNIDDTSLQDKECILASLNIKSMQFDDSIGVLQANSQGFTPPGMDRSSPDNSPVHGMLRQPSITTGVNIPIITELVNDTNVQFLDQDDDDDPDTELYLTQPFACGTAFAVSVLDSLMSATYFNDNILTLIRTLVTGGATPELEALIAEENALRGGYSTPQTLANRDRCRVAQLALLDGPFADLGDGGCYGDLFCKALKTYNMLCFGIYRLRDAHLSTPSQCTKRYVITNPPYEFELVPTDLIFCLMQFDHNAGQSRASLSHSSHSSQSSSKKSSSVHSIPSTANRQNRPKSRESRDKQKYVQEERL

Regarding `CC(C)=CCc1cccc2[nH]c3c(c12)C[C@@H]1CC[C@@]2(O)C45OC4C4OC(C6OC6(C)C)OC(C)(C)C4OC5=CC[C@]2(C)[C@@]31C` (some centres unmarked) [Compound III], the “FRACTION BLOCKED (10 nM)” value in data set [1] was 0.99-1. Moreover, the Tremors result in data set [2] (5 mg/Kg, observed for 1 hour) is “None”.
Take `CC(C)=CC1OC2C(OC3=CC[C@]4(C)[C@@]5(C)c6[nH]c7ccccc7c6C[C@@H]5CC[C@@]4(O)C34OC24)C(C)(C)O1` (some centres unmarked) [Compound II]: the “FRACTION BLOCKED (10 nM)” value in data set [1] is on record as 0.99-1. In data set [2] (5 mg/Kg, observed for 1 hour), the Tremors result is recorded as “None”.
Taken in the same sequence, the figures for `CC1(C)OC1Cc1cccc2[nH]c3c(c12)C[C@@H]1CC[C@@]2(O)C45OC4C4OC(C6OC6(C)C)OC(C)(C)C4OC5=CC[C@]2(C)[C@@]31C` (some centres unmarked) [Compound I] were 0.9 and “None”.
Take Aflatrem [reference compound]: in data set [2] (1 and 5 mg/Kg), the “time to tremors after injection” value is not above 15 min and the Tremors result is listed as “Tremors”.
